According to publication PMC12802951, “Unravelling the triad of penicillin-binding proteins, β-lactamase activity, and mRNA dynamics in Pseudomonas aeruginosa AmpC induction” (Journal of Antimicrobial Chemotherapy, 2025):
Read-outs that look alike come from different tables or passages of the source.

How the values were obtained:
PBP3 [1] = target: T1, PBP3 (Pseudomonas aeruginosa, UniProt G3XD46); test: Bocillin-FL competition in whole cells; format: cell-based; design: gene ftsI; native full-length protein in intact P. aeruginosa PAO1 cells, Bocillin-FL labelled; details: intact PAO1 cells, 30 min incubation, covalent
T1 sequence (G3XD46 whole entry): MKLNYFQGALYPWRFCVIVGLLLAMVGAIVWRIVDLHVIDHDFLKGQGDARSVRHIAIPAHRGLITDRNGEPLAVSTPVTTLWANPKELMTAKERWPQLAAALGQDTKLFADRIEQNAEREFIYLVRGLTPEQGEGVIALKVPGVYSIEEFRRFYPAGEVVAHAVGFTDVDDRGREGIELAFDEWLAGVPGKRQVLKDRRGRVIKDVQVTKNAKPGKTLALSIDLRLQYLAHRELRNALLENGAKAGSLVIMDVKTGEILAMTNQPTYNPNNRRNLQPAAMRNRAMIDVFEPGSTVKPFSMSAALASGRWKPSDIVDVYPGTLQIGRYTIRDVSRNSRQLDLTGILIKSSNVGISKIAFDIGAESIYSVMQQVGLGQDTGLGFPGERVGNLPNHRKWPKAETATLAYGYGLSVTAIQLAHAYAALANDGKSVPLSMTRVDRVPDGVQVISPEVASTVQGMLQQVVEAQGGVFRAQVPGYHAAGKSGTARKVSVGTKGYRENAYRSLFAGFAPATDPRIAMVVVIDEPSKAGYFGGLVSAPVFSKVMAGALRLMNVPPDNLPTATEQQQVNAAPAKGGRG

PBP5 = target: T2, PBP5 (Pseudomonas aeruginosa, UniProt G3XD74); test: Bocillin-FL competition in whole cells; format: cell-based; details: intact PAO1 cells, 30 min incubation, covalent
T2 construct: gene dacC; native full-length protein in intact P. aeruginosa PAO1 cells, Bocillin-FL labelled
T2 sequence (G3XD74 entry or part of it): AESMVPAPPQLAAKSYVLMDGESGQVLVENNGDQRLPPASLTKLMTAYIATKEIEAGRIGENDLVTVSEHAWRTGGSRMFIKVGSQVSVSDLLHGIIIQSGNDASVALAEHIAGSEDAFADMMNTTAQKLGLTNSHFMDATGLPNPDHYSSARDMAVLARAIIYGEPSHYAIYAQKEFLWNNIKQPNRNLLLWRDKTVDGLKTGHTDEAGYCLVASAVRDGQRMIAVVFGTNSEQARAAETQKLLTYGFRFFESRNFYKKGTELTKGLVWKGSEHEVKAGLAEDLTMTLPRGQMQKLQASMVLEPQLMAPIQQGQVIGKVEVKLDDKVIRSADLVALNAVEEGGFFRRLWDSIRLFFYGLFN

PBP4 = target: T3, PBP4 (Pseudomonas aeruginosa, UniProt Q9HZG1); test: Bocillin-FL competition in whole cells; format: cell-based; details: intact PAO1 cells, 30 min incubation, covalent
T3 construct: gene PA3047; native full-length protein in intact P. aeruginosa PAO1 cells, Bocillin-FL labelled
T3 sequence (Q9HZG1 entry or part of it): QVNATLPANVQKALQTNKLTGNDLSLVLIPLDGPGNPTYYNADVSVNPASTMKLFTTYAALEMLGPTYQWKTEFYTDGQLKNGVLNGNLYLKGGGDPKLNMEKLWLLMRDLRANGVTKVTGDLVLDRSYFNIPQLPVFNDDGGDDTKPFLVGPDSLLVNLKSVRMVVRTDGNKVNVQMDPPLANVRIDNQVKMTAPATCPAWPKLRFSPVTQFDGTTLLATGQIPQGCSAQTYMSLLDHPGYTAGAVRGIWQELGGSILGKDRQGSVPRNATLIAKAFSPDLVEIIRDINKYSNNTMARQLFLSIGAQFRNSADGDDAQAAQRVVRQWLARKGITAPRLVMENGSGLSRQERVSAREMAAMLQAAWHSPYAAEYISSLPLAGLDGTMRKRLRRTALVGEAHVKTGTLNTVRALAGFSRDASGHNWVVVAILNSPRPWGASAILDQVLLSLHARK
Text: Bocillin-FL competition in whole cells on PBP4

PBP3 [2] = target: T1, PBP3; test: biochemical; design: gene ftsI; native protein in lysed PAO1; species or system Pseudomonas aeruginosa PAO1; Bocillin FL labelling competition of PBPs in lysed P. aeruginosa PAO1
Text: Abstract Objectives The main objective of the present work was to dissect the interplay between penicillin-binding protein (PBP) occupancy, ampC transcriptional dynamics, and β-lactamase activity in Pseudomonas aeruginosa. Methods Using wild-type PAO1 and isogenic LMW-PBP knockout mutants (PAOΔdacB, PAOΔdacBdacC, and PAOΔdacBdacCpbpG), we assessed ampC induction following exposure to 18 β-lactams and β-lactamase inhibitors. PBP binding (IC50) was quantified via Bocillin-FL labelling. AmpC mRNA levels were measured by qRT-PCR, and β-lactamase activity was determined in crude extracts, periplasmic and extracellular fractions using nitrocefin and cefalotin substrates. […] Binding to PBP4 is a recognized trigger for ampC induction.

PBP2 = target: T4, PBP2 (Pseudomonas aeruginosa, UniProt G3XCV7); test: Bocillin-FL competition in whole cells; format: cell-based; details: intact PAO1 cells, 30 min incubation, covalent
T4 construct: gene pbpA; native full-length protein in intact P. aeruginosa PAO1 cells, Bocillin-FL labelled
T4 sequence (G3XCV7 1-646): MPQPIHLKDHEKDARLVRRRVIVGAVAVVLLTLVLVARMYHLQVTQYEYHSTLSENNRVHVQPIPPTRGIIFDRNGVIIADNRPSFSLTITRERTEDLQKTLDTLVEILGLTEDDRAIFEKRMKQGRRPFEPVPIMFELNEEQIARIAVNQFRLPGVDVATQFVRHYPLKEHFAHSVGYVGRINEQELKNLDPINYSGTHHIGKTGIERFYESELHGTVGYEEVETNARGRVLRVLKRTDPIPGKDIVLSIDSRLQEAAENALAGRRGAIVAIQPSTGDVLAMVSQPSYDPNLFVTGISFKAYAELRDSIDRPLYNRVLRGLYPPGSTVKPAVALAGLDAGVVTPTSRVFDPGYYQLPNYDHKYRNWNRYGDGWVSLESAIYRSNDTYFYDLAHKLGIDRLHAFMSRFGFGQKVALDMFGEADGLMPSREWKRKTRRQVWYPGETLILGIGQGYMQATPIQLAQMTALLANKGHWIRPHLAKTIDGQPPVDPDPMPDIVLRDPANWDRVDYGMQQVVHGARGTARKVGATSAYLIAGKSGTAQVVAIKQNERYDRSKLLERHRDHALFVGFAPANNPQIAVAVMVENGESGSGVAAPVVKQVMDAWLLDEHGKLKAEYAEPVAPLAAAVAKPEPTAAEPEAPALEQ
Text: Bocillin-FL competition in whole cells on PBP2

AmpC = target: T5, AmpC (Pseudomonas aeruginosa, UniProt P24735); test: inhibition of nitrocefin / cefalotin hydrolysis in crude extract; format: biochemical; details: crude extract of PAOΔdacBdacCpbpG; 500 mg/L in Results (Methods: 50 and 100 μM); both substrates
T5 construct: native chromosomal enzyme in crude extract of constitutive AmpC-overproducing triple LMW-PBP knockout
T5 sequence (P24735 27-397): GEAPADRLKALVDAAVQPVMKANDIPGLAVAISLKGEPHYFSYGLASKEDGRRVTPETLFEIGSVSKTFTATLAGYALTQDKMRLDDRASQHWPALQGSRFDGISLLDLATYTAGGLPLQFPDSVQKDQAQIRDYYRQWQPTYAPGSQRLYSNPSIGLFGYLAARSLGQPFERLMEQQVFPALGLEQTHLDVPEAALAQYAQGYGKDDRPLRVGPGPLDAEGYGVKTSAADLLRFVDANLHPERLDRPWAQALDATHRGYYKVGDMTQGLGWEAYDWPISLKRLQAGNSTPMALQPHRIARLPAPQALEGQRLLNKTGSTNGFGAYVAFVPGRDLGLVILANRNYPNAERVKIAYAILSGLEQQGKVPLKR

[3] = read-out: Drug mg/L^a / DOR / AVI
[4] = read-out: Drug mg/L^a / MEM / FOX
[5] = read-out: Drug mg/L^a / ETP / CAZ
[6] = read-out: Drug mg/L^a / TIC / REL
[7] = read-out: Drug mg/L^a / MEC / SUL
[8] = read-out: Drug mg/L^a / PIP / CLV
[9] = read-out: Drug mg/L^a / CAR / TZB

`C[C@@H](O)[C@H]1C(=O)N2C(C(=O)O)=C(S[C@@H]3CN[C@H](CNS(N)(=O)=O)C3)[C@H](C)[C@H]12` [doripenem] gave an IC50 (PBP3 [1]; [3]) of 1.05 µM, an IC50 (PBP5; [3]) of 2.14 µM and an IC50 (PBP4; [4]) of 0.0476 µM. The IC50 (PBP3 [2]) was 0.309 µM and the IC50 (PBP2; [3]) was 0.69 µM.

In the case of `C[C@@H](O)[C@H]1C(=O)N2C(C(=O)O)=C(S[C@@H]3CN[C@H](C(=O)Nc4cccc(C(=O)O)c4)C3)[C@H](C)[C@H]12` [ertapenem], the IC50 (PBP3 [1]; [5]) is reported as 1.14 µM, the IC50 (PBP5; [5]) is reported as 1.7 µM and the IC50 (PBP4; [5]) is reported as 0.105 µM. It also gave an IC50 (PBP3 [2]) of 0.4 µM and an IC50 (PBP2; [5]) of 0.673 µM.

Molecule `CC(C)(O/N=C(\C(=O)N[C@@H]1C(=O)N2C(C(=O)[O-])=C(C[n+]3ccccc3)CS[C@H]12)c1csc(N)n1)C(=O)O` [ceftazidime] has an IC50 (PBP3 [1]; [5]) of 0.567 µM, an IC50 (PBP4; [5]) of 0.585 µM and an IC50 (PBP3 [2]) of 0.11 µM. The IC50 (PBP2; [5]) was 2.73 µM.

Molecule `CC1(C)S[C@@H]2[C@H](NC(=O)[C@H](C(=O)O)c3ccsc3)C(=O)N2[C@H]1C(=O)O` [ticarcillin] has an IC50 (PBP3 [1]; [6]) of 6.4 µM, an IC50 (PBP5; [6]) of 682 µM and an IC50 (PBP2; [6]) of 51.5 µM.

Molecule `CC1(C)[C@H](C(=O)O)N2C(=O)C[C@H]2S1(=O)=O` [sulbactam] has an IC50 (PBP3 [1]; [7]) of 9.09 µM, an IC50 (PBP5; [7]) of 8.96 µM and an IC50 (PBP4; [7]) of 12.4 µM. For the same molecule, the IC50 (PBP2; [7]) was 19.2 µM.

For `CC1(C)S[C@@H]2[C@H](N=CN3CCCCCC3)C(=O)N2[C@H]1C(=O)O` [mecillinam], the IC50 (PBP5; [7]) was 1300 µM, the IC50 (PBP4; [7]) was 648 µM and the IC50 (PBP2; [7]) was 870 µM.

Work on `O=C(O)[C@H]1/C(=C/CO)O[C@@H]2CC(=O)N21` [clavulanic acid] yielded an IC50 (PBP3 [1]; [8]) of 30.5 µM, an IC50 (PBP5; [8]) of 18.1 µM and an IC50 (PBP4; [8]) of 21.8 µM. For the same molecule, the IC50 (PBP2; [8]) was 56.2 µM.

In the case of `CCN1CCN(C(=O)N[C@@H](C(=O)N[C@@H]2C(=O)N3[C@@H]2SC(C)(C)[C@@H]3C(=O)O)c2ccccc2)C(=O)C1=O` [piperacillin], the IC50 (PBP3 [1]; [8]) is reported as 1.7 µM, the IC50 (PBP5; [8]) is reported as 6.09 µM and the IC50 (PBP4; [8]) is reported as 3.23 µM. For the same molecule, the IC50 (PBP3 [2]) was 0.0966 µM and the IC50 (PBP2; [8]) was 4.21 µM.

For `NC(=O)[C@@H]1CC[C@@H]2CN1C(=O)N2OS(=O)(=O)O` [avibactam], the IC50 (PBP3 [1]; [3]) was 38.8 µM, the IC50 (PBP5; [3]) was 12.4 µM and the IC50 (PBP4; [3]) was 9.01 µM. It also gave an IC50 (PBP2; [3]) of 23.7 µM.

Molecule `O=C(NC1CCNCC1)[C@@H]1CC[C@@H]2CN1C(=O)N2OS(=O)(=O)O` [relebactam] has an IC50 (PBP3 [1]; [6]) of 12.2 µM, an IC50 (PBP5; [6]) of 81.7 µM and an IC50 (PBP4; [6]) of 24.4 µM. It also gave an IC50 (PBP2; [6]) of 17.1 µM.

`Cc1onc(-c2ccccc2Cl)c1C(=O)N[C@@H]1C(=O)N2[C@@H]1SC(C)(C)[C@@H]2C(=O)O` [cloxacillin] was tested, and the “% reduction in hydrolysis rate at 500 mg/L” value (AmpC) was greater than 95%.

`CC1(C)S[C@@H]2[C@H](NC(=O)C(C(=O)O)c3ccccc3)C(=O)N2[C@H]1C(=O)O` (some centres unmarked) [carbenicillin] was tested, and the IC50 (PBP3 [1]; [9]) was 9.01 µM, the IC50 (PBP5; [9]) was 129 µM and the IC50 (PBP2; [9]) was 85.4 µM.

Molecule `C[C@H]1[C@H](NC(=O)/C(=N\OC(C)(C)C(=O)O)c2csc(N)n2)C(=O)N1S(=O)(=O)O` [aztreonam] has an IC50 (PBP3 [1]; read-out: Drug mg/L^a / ATM) of 1.75 µM, an IC50 (PBP5; read-out: Drug mg/L^a / ATM) of 10.4 µM and an IC50 (PBP4; read-out: Drug mg/L^a / ATM) of 3.1 µM. The IC50 (PBP3 [2]) was 0.184 µM and the IC50 (PBP2; read-out: Drug mg/L^a / ATM) was 17 µM.

In the case of `CO/N=C(\C(=O)N[C@@H]1C(=O)N2C(C(=O)[O-])=C(C[N+]3(C)CCCC3)CS[C@H]12)c1csc(N)n1` [cefepime], the IC50 (PBP3 [1]; read-out: IPM / FEP) is reported as 0.437 µM, the IC50 (PBP4; read-out: IPM / FEP) is reported as 0.52 µM and the IC50 (PBP2; read-out: IPM / FEP) is reported as 2 µM.

For `C[C@@H](O)[C@H]1C(=O)N2C(C(=O)O)=C(S[C@@H]3CN[C@H](C(=O)N(C)C)C3)[C@H](C)[C@H]12` [meropenem], the IC50 (PBP5; [4]) was 3.65 µM, the IC50 (PBP4; [4]) was 0.0522 µM and the IC50 (PBP2; [4]) was 3.99 µM.

`C[C@@H](O)[C@H]1C(=O)N2C(C(=O)O)=C(SCCN=CN)C[C@H]12` [imipenem] was tested, and the IC50 (PBP5; read-out: IPM / FEP) was 0.2 µM, the IC50 (PBP4; read-out: IPM / FEP) was 0.0334 µM and the IC50 (PBP2; read-out: IPM / FEP) was 0.2 µM.

`C[C@]1(Cn2ccnn2)[C@H](C(=O)O)N2C(=O)C[C@H]2S1(=O)=O` [tazobactam] gave an IC50 (PBP3 [1]; [9]) of 13.4 µM, an IC50 (PBP5; [9]) of 15.9 µM and an IC50 (PBP4; [9]) of 15.9 µM. For the same molecule, the IC50 (PBP2; [9]) was 11.9 µM.

`CO[C@@]1(NC(=O)Cc2cccs2)C(=O)N2C(C(=O)O)=C(COC(N)=O)CS[C@@H]21` [cefoxitin] gave an IC50 (PBP3 [1]; [4]) of 5390 µM, an IC50 (PBP5; [4]) of 12.4 µM and an IC50 (PBP4; [4]) of 47.7 µM. The “FOX IC50” value (PBP3 [2]; lysed PAO1, covalent) was 10.7 µg/mL and the IC50 (PBP2; [4]) was 4750 µM.
